Experimental data published in article PMC4779441 (International journal of peptide research and therapeutics, 2015).

System: HCT-116 cells
Assay: In vitro cells' growth inhibition assay
Conditions: Homo sapiens, HCT-116, 48 h, read-out: EC50 [µM] HCT-116

EC50: 74.5 ± 3.7 µM
SMILES: CC(=O)O[C@@]12CO[C@@H]1C[C@H](O)[C@@]1(C)C(=O)[C@H](O)C3=C(C)[C@@H](OC(=O)[C@H](O)[C@@H](NC(=O)OC(C)(C)C)c4ccccc4)C[C@@](O)([C@@H](OC(=O)c4ccccc4)[C@H]21)C3(C)C [DTX, Docetaxel]
